In US12678419B2, “Compounds” (Sitryx Therapeutics Limited, priority 2020, dated 2026):
Structures can show the parent of a compound that is named as a salt.

Assays:
mouse hepatocytes = test: Hepatocyte stability assay, mouse; assay type: in vitro ADME; conditions: 10 μM compound
Source text: (§1) Defrosted cryo-preserved hepatocytes (viability >70%) were used to determine the metabolic stability of a compound via calculation of intrinsic clearance (Clint; a measure of the removal of a compound from the liver in the absence of blood flow and cell binding). Clearance data are particularly important for in vitro work as they can be used in combination with in vivo data to predict the half-life and oral bioavailability of a drug.
(§2) The metabolic stability in hepatocytes assay involves a time-dependent reaction using both positive and negative controls. The cells were pre-incubated at 37° C. and spiked with test compound (and positive control); samples were taken at pre-determined time intervals were analysed to monitor the change in concentration of the initial drug compound over 60 minutes. A buffer incubation reaction (with no hepatocytes present) acted as a negative control and two cocktail solutions, containing compounds with known high and low clearance values (verapamil/7-hydroxycoumarin and propranolol/diltiazem), acted as positive controls. • 1. The assay was run with a cell concentration of 0.5×10^6 cells/mL in Leibovitz buffer. • 2. All compounds and controls were run in duplicate. • 3. Compound concentration was 10 μM. • 4. All compounds and controls were incubated with both cells and buffer to show turnover was due to hepatic metabolism. • 5. All wells on the incubation plate had 326.7 μL of either cells or buffer added. • 6. Prior to assay, cell and buffer-only incubation plates were preincubated for 10 mins at 37° C. • 7. The assay was initiated by adding compounds, 3.3 μL of 1 mM in 10% DMSO-90% Buffer; final DMSO concentration was 0.1%. • 8. Samples were taken at regular timepoints (0, 5, 10, 20, 40, 60 min) until 60 mins. • 9. Sample volume was 40 μL and was added to 160 μL of crash solvent (acetonitrile with internal standard) and stored on ice. • 10. At the end of the assay, the crash plates were centrifuged at 3500 rpm for 20 mins at 4° C. • 11. 80 μL of clear supernatant was removed and mixed with 80 μL of deionised water before being analysed by LC-MS/MS.
(§3) Raw LC-MS/MS data was exported to, and analysed in, Microsoft Excel for determination of intrinsic clearance. The percentage remaining of a compound was monitored using the peak area of the initial concentration as 100%. Intrinsic clearance and half-life values were calculated using a graph of the natural log of percentage remaining versus the time of reaction in minutes. Half-life (min) and intrinsic clearance (Clint in μL min^−1 10^−6 cells) values were calculated using the gradient of the graph (the elimination rate constant, k) and Equations 1 and 2.

human hepatocytes = test: Hepatocyte stability assay, human; assay type: in vitro ADME; conditions: 10 μM compound
Source text: as §1, §2, §3

[1] = test system: IL-1β cytokine output from THP-1s; test: THP-1 AlphaLISA IL-1β cytokine assay; assay type: cell-based
Method: (§4) The cytokine inhibition profiles of compounds of formula (I) were determined in a differentiated THP-1 cell assay. All assays were performed in RPMI-1640 growth medium (Gibco), supplemented with 10% fetal bovine serum (FBS; Gibco), 1% penicillin-streptomycin and 1% sodium pyruvate unless specified otherwise. The IL-1β and IL-6 cytokine inhibition assays were each run in a background of differentiated THP-1 cells as described below. All reagents described were from Sigma-Aldrich unless specified otherwise. Compounds were prepared as 10 mM DMSO stocks.
(§5) THP-1 cells were expanded as a suspension up to 80% confluence in appropriate growth medium. Cells were harvested, suspended, and treated with an appropriate concentration of phorbol 12-myristate 13-acetate (PMA) over a 72 hr period (37° C./5% CO2).
(§6) Following 72 hrs of THP-1 cell incubation, cellular medium was removed and replaced with fresh growth media containing 1% of FBS. Working concentrations of compounds were prepared separately in 10% FBS treated growth medium and pre-incubated with the cells for 30 minutes (37° C./5% CO2). Following the 30 minute compound pre-incubation, THP-1s were treated with an appropriate concentration of LPS and the THP-1s were subsequently incubated for a 24 hr period (37° C./5% CO2). An appropriate final concentration of Nigericin was then dispensed into the THP-1 plates and incubated for 1 hour (37° C./5% CO2) before THP-1 supernatants were harvested and collected in separate polypropylene 96-well holding plates.
(§7) Reagents from each of the IL-1β and IL-6 commercial kits (Perkin Elmer) were prepared and run according to the manufacturer's instructions. Subsequently, fluorescence signal detection in a microplate reader was measured (EnVision® Multilabel Reader, Perkin Elmer).
(§8) Percentage inhibition was calculated per cytokine by normalising the sample data to the high and low controls used within each plate (+/− LPS respectively). Percentage inhibition was then plotted against compound concentration and the 50% inhibitory concentration (IC50) was determined from the resultant concentration-response curve.

[2] = test system: IL-6 cytokine output from THP-1s; test: THP-1 AlphaLISA IL-6 cytokine assay; assay type: cell-based; conditions: LPS then nigericin, Table 1
Method: as §4, §5, §6, §7, §8

[3] = test system: NRF2 (nuclear factor erythroid 2-related factor 2); test: NRF2 +/-GSH activation assay (DiscoverX PathHunter NRF2 translocation kit, U2OS cells); assay type: cell-based; conditions: for Emax (%) +GSH / Emax (%) −GSH: normalised to dimethyl fumarate high control
[4] = differentiated THP-1 cells, LPS then nigericin, Table 1
[5] = Homo sapiens, THP-1, differentiated THP-1 cells, Table 2, compounds of formula (XVI)
[6] = Homo sapiens, THP-1, differentiated THP-1 cells
[7] = Homo sapiens, THP-1, differentiated THP-1 cells, LPS then nigericin, Table 1
[8] = differentiated THP-1 cells, Table 2, compounds of formula (XVI)

Row | Compound | Clint (μL min^−1 10^−6 cells) (mouse hepatocytes) | T½ (mouse hepatocytes) [min] | Clint (μL min^−1 10^−6 cells) (human hepatocytes) | T½ (human hepatocytes) [min] | IC50 [1, 4] [µM] | EC50 ([3]; +GSH) [µM] | Emax (%) +GSH ([3]; +GSH) [%] | EC50 ([3]; −GSH) [µM] | Emax (%) −GSH ([3]; −GSH) [%] | IC50 [1, 7] [µM] | also measured
1 | C=C(CC(=O)OC1CCc2c(Br)cc(F)cc21)C(=O)OCC(=O)O (single isomer, unassigned; enantiomer 2) [Example 16, 2-((4-((4-bromo-6-fluoro-2,3-dihydro-1H-inden-1-yl)oxy)-2-methylene-4-oxobutanoyl)oxy)acetic acid (Enantiomer 2)] | >460 | <3 | 15 | 95 | 2.6 |  |  |  |  |  | 
2 | C=C(CC(=O)OC1CCc2c(Cl)cc(Cl)cc21)C(=O)O (single isomer, unassigned; enantiomer 1) [Intermediate 25, 4-((4,6-dichloro-2,3-dihydro-1H-inden-1-yl)oxy)-2-methylene-4-oxobutanoic acid Enantiomer 1] |  |  |  |  |  |  |  |  |  |  | IC50 [1, 5]: 43.2 µM
3 | COC(=O)/C=C/C(=O)OC [dimethyl fumarate, reference compound] |  |  |  |  |  | > 100 | 19 | 6 | 100 | 14.4 | IC50 [2, 6]: 9.3 µM
4 | C=C(CC(=O)OC1CCc2cc(Cl)c(Cl)cc21)C(=O)OCC(=O)O (single isomer, unassigned; enantiomer 2) [Example 6, 2-((4-((5,6-dichloro-2,3-dihydro-1H-inden-1-yl)oxy)-2-methylene-4-oxobutanoyl)oxy)acetic acid (Enantiomer 2)] | 69 | 19 | 8 | 207 | 9.9 | 17.4 | 215 | 8.3 | 242 |  | 
5 | C=C(CC(=O)OC1CCc2c(Cl)cc(F)cc21)C(=O)OCC(=O)O (single isomer, unassigned; enantiomer 1) [Example 19, 2-((4-((4-chloro-6-fluoro-2,3-dihydro-1H-inden-1-yl)oxy)-2-methylene-4-oxobutanoyl)oxy)acetic acid (Enantiomer 1)] | 37 | 41 | 4 | 335 |  | 10.1 | 48 | 18.1 | 224 | 2.2 | 
6 | C=C(CC(=O)OC1CCc2ccc(OC(F)(F)F)cc21)C(=O)OCC(=O)O (single isomer, unassigned; enantiomer 2) [Example 30, 2-((2-methylene-4-oxo-4-((6-(trifluoromethoxy)-2,3-dihydro-1H-inden-1-yl)oxy)butanoyl)oxy)acetic acid (Enantiomer 2)] | 393 | 4 | 19 | 81 | 7.9 | 28.7 | 182 | 21.6 | 225 |  | IC50 ([2]; differentiated THP-1 cells): 20.6 µM
7 | C=C(CC(=O)OC1CCc2cc(Cl)cc(Cl)c21)C(=O)OCC(=O)O (single isomer, unassigned; enantiomer 1) [Example 8, 2-((4-((5,7-dichloro-2,3-dihydro-1H-inden-1-yl)oxy)-2-methylene-4-oxobutanoyl)oxy)acetic acid (Enantiomer 1)] | 316 | 4 | 15 | 106 |  | 16.4 | 264 | 4.8 | 268 | 10.6 | 
8 | C=C(CC(=O)OCCCCCCCC)C(=O)O [4-octyl itaconate, reference compound] | 351 | 4 | 401 | 4 |  |  |  |  |  |  | 
9 | C=C(CC(=O)OC1CCc2cc(Cl)cc(Cl)c21)C(=O)OCC(=O)O (single isomer, unassigned; enantiomer 2) [Example 9, 2-((4-((5,7-dichloro-2,3-dihydro-1H-inden-1-yl)oxy)-2-methylene-4-oxobutanoyl)oxy)acetic acid (Enantiomer 2)] | 61 | 21 | 4 | 428 | 11.7 | 20.6 | 204 | 8.1 | 244 |  | 
10 | C=C(CC(=O)OC1CCCc2cc(C(F)(F)F)ccc21)C(=O)O (single isomer, unassigned; enantiomer 1) [Intermediate 40, 2-methylene-4-oxo-4-((6-(trifluoromethyl)-1,2,3,4-tetrahydronaphthalen-1-yl)oxy)butanoic acid (Enantiomer 1)] |  |  |  |  |  |  |  |  |  |  | IC50 [1, 8]: 5.3 µM
11 | C=C(CC(=O)OC1CCc2cc(Br)c(OC)cc21)C(=O)OCC(=O)O (single isomer, unassigned; enantiomer 2) [Example 13, 2-((4-((5-bromo-6-methoxy-2,3-dihydro-1H-inden-1-yl)oxy)-2-methylene-4-oxobutanoyl)oxy)acetic acid (Enantiomer 2)] |  |  |  |  | 34.9 |  |  |  |  |  | 
12 | C=C(CC(=O)OC)C(=O)OC [dimethyl itaconate, reference compound] |  |  |  |  |  |  |  |  |  | > 100 | IC50 [2, 6]: > 100 µM; IC50 [1, 5]: > 100 µM
13 | C=C(CC(=O)OC1CCc2cc(C(F)(F)F)ccc21)C(=O)O (stereo not drawn) [Intermediate 37, 2-methylene-4-oxo-4-((5-(trifluoromethyl)-2,3-dihydro-1H-inden-1-yl)oxy)butanoic acid] |  |  |  |  |  |  |  |  |  |  | IC50 [1, 5]: 18.3 µM
14 | C=C(CC(=O)OC1CCc2cc(Cl)cc(Cl)c2C1)C(=O)OCC(=O)O (single isomer, unassigned; enantiomer 2) [Example 11, 2-((4-((6,8-dichloro-1,2,3,4-tetrahydronaphthalen-2-yl)oxy)-2-methylene-4-oxobutanoyl)oxy)acetic acid (Enantiomer 2)] | 311 | 5 | 24 | 62 | 6.1 |  |  |  |  |  | 
15 | C=C(CC(=O)OC1CCCc2cc(C(F)(F)F)ccc21)C(=O)O (single isomer, unassigned; enantiomer 2) [Intermediate 41, 2-methylene-4-oxo-4-((6-(trifluoromethyl)-1,2,3,4-tetrahydronaphthalen-1-yl)oxy)butanoic acid (Enantiomer 2)] |  |  |  |  |  |  |  |  |  |  | IC50 [1, 8]: 31.7 µM
16 | C=C(CC(=O)OC1CCc2cc(Br)c(OC)cc21)C(=O)OCC(=O)O (single isomer, unassigned; enantiomer 1) [Example 12, 2-((4-((5-bromo-6-methoxy-2,3-dihydro-1H-inden-1-yl)oxy)-2-methylene-4-oxobutanoyl)oxy)acetic acid (Enantiomer 1)] |  |  |  |  |  |  |  |  |  | 46.4 | 
